US20080090805A1, “CB-1 MODULATING COMPOUNDS AND THEIR USE” (ACADIA PHARMACEUTICALS INC., priority 2005, published 2008)
Read-outs that look alike come from different tables or passages of the source.

Molecular target: CB1 (mutant) (Homo sapiens, UniProt P21554)
Test: R-SAT functional receptor assay, CB1 (mutant, truncated after amino acid 417)
Assay type: cell-based
Settings: R-SAT CB1; for IC50: receptor form (mutant or wild-type) not stated; for Emax: read-out: % Inhibition
[1] = Appendix A, read-out: pIC50 (converted)
[2] = Appendix A, receptor form not stated, relative to SR141716 (100%)

CB1 (mutant), sequence (P21554 1-417, change not shown): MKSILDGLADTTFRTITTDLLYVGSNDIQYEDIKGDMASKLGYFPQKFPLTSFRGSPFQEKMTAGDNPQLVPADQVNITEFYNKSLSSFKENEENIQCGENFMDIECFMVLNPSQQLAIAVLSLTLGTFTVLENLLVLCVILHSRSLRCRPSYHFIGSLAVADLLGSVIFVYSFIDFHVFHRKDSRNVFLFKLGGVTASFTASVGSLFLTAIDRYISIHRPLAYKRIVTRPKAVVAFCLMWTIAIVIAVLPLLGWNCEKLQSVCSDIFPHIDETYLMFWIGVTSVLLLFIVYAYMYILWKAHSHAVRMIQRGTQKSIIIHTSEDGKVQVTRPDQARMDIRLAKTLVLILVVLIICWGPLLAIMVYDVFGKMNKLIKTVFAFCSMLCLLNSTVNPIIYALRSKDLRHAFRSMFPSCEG

Row | Structure (SMILES) | IC50 [1] [nM] | Emax [2] [%] | IC50 (pIC50, Appendix A) [nM] | % Inhibition [2] [%]
1 | CCN(CCNC(=O)c1ccc2c(c1)N=C(c1ccc(Cl)cc1)c1ccccc1S2)c1ccccc1 [drawing 635] | 5.01 | 102 |  | 
2 | CCCC1=Nc2cc(C(=O)NCCCN3CC(C)CC(C)C3)ccc2Sc2ccccc21 (stereo not drawn) | 631 | 136 |  | 
3 | CCCCCC1=Nc2cc(C(=O)NC3CCN(C(=O)OCC)CC3)ccc2Sc2ccccc21 | 501 | 87 |  | 
4 | CC(C)CNC(=O)c1ccc2c(c1)N=C(c1ccc(F)cn1)c1ccccc1S2 [drawing 711] | 7.94 | 113 |  | 
5 | O=C(NCCc1ccccn1)c1ccc2c(c1)N=C(c1cccc(Cl)c1)c1ccccc1S2 [drawing 905] | 15.8 | 103 |  | 
6 | O=C(NCc1cccs1)c1ccc2c(c1)N=C(c1ccccc1Cl)c1ccccc1S2 | 200 | 87 |  | 
7 | CCCC1=Nc2cc(C(=O)NC(C)C34CC5CC(CC(C5)C3)C4)ccc2Sc2ccccc21 (stereo not drawn) | 79.4 | 112 |  | 
8 | CCCCNC(=O)c1ccc2c(c1)N=C(c1cccc(Cl)c1)c1cc(Cl)ccc1S2 [drawing 997] | 25.1 | 110 |  | 
9 | O=C(NCc1cccc(Cl)c1)c1ccc2c(c1)N=C(N1CCC(F)CC1)c1ccccc1S2 [drawing 679] | 6.31 | 108 |  | 
10 | Cc1ccsc1C1=Nc2cc(C(=O)NC3CCC(F)(F)CC3)ccc2Sc2ccccc21 [drawing 620] |  | 76 | 63.1 | 
11 | O=C(NN1CCCCC1)c1ccc2c(c1)N=C(N1CCOCC1)c1ccccc1S2 |  | 76 |  | 
12 | COc1cccc(C2=Nc3cc(C(=O)NC4CCC(F)(F)CC4)ccc3Sc3ccccc32)n1 [drawing 653] |  | 104 | 6.31 | 
13 | CCCNC(=O)c1ccc2c(c1)N=C(c1cccc(Cl)c1)c1ccccc1S2 [drawing 641] | 5.01 | 107 |  | 
14 | O=C(NCCc1cccc(Cl)c1)c1ccc2c(c1)N=C(c1ccccc1F)c1ccccc1S2 [drawing 736] | 79.4 | 91 |  | 
15 | CC(C)NC(=O)c1ccc2c(c1)N=C(c1ccccc1F)c1ccccc1S2 | 251 | 82 |  | 
16 | O=C(NCc1cccc(Cl)c1)c1ccc2c(c1)N=C(C1CCCCC1)c1ccccc1S2 [drawing 637] | 5.01 | 112 |  | 
17 | CCCCN(CCCNC(=O)c1ccc2c(c1)N=C(CCC)c1ccccc1S2)Cc1ccccc1 | 100 | 99 |  | 
18 | COCCNC(=O)c1ccc2c(c1)N=C(c1cccc(Cl)c1)c1ccccc1S2 [drawing 849] | 12.6 | 110 |  | 
19 | CCCCNC(=O)c1ccc2c(c1)N=C(c1ncccc1C)c1ccccc1S2 |  | 85 |  | 
20 | CCCNC(=O)c1ccc2c(c1)N=C(c1ccccn1)c1ccccc1S2 | 39.8 | 116 |  | 
21 | CCCC1=Nc2cc(C(=O)N3CCN(c4cc(C)ccc4C)CC3)ccc2Sc2ccccc21 | 158 | 90 |  | 
22 | Cc1ccc(N2CCN(C(=O)c3ccc4c(c3)N=C(CC(C)C)c3ccccc3S4)CC2)c(C)c1 | 251 | 105 |  | 
23 | CCONC(=O)c1ccc2c(c1)N=C(c1ccccc1F)c1ccccc1S2 | 398 | 73 |  | 
24 | CC(CNC(=O)c1ccc2c(c1)N=C(c1ccc(Cl)cc1)c1cc(F)ccc1S2)c1ccccc1 (stereo not drawn) [drawing 1173] | 39.8 | 110 |  | 
25 | CCCCNC(=O)c1ccc2c(c1)N=C(N1CCCCC1)c1ccccc1S2 [drawing 683] | 6.31 | 99 |  | 

Row | Structure (SMILES) | IC50 [1] [nM] | Emax [2] [%] | IC50 (pIC50, Appendix A) [nM] | % Inhibition [2] [%]
26 | O=C(Cc1ccccc1)NNC(=O)c1ccc2c(c1)N=C(c1ccc(F)cc1)c1ccccc1S2 [drawing 840] | 158 | 98 |  | 
27 | Cc1cc(Cl)ccc1C1=Nc2cc(C(=O)NC3CCCCC3)ccc2Sc2ccccc21 | 251 | 83 |  | 
28 | CCCC1=Nc2cc(C(=O)NCCCOCC)ccc2Sc2ccccc21 | 50.1 | 92 |  | 
29 | O=C(NC1CCCCC1)c1ccc2c(c1)N=C(c1ccc(F)cc1)c1ccccc1S2 [drawing 1065] | 31.6 | 111 |  | 
30 | O=C(NCCCc1ccccc1)c1ccc2c(c1)N=C(c1cccc(Cl)c1)c1ccccc1S2 [drawing 615] | 3.98 | 110 |  | 
31 | CCCCNC(=O)c1ccc2c(c1)N=C(c1cccc(Cl)c1)c1ccccc1S2 [drawing 737] | 7.94 | 98 |  | 
32 | CCCC1=Nc2cc(C(=O)NCCCN3CCN(C4CCCCC4)CC3)ccc2Sc2ccccc21 | 631 | 118 |  | 
33 | O=C(NCc1ccccc1Br)c1ccc2c(c1)N=C(c1ccc(Cl)cc1)c1ccccc1S2 [drawing 608] | 50.1 | 94 |  | 
34 | O=C(NN1CCCCC1)c1ccc2c(c1)N=C(c1ccccc1F)c1ccccc1S2 |  | 104 | 100 | 
35 | O=C(NCc1cccs1)c1ccc2c(c1)N=C(c1cccc(Cl)c1)c1ccccc1S2 [drawing 573] | 2.51 | 108 |  | 
36 | O=C(NCCC(F)(F)F)c1ccc2c(c1)N=C(c1cccc(Cl)c1)c1ccccc1S2 [drawing 549] | 1.58 | 96 |  | 
37 | O=C(NCc1ccco1)c1ccc2c(c1)N=C(c1ccc(Cl)cc1)c1ccccc1S2 [drawing 753] | 7.94 | 94 |  | 
38 | O=C(NCCc1ccccc1)c1ccc2c(c1)N=C(c1ccc(F)cc1)c1ccccc1S2 [drawing 839] | 12.6 | 103 |  | 
39 | O=C(NCc1cccs1)c1ccc2c(c1)N=C(c1ccc(Cl)cc1)c1ccccc1S2 [drawing 751] | 7.94 | 107 |  | 
40 | CCCSCCCNC(=O)c1ccc2c(c1)N=C(CCC)c1ccccc1S2 | 1580 | 87 |  | 
41 | CC(NC(=O)c1ccc2c(c1)N=C(c1ccccc1)c1ccccc1S2)c1ccccc1 (stereo not drawn) [drawing 1147] | 39.8 | 85 |  | 
42 | CCCCNC(=O)c1ccc2c(c1)N=C(c1ccc(Cl)cn1)c1ccc(F)cc1S2 [drawing 632] | 63.1 | 95 |  | 
43 | COCCNC(=O)c1ccc2c(c1)N=C(c1ccccc1F)c1ccccc1S2 | 100 | 99 |  | 
44 | CCCC1=NC2=C(CCC(C(=O)NCCc3ccc(OCC)cc3)=C2)Sc2ccccc21 | 158 | 102 |  | 
45 | O=C(NCCc1cccc(Cl)c1)c1ccc2c(c1)N=C(C1CCCCC1)c1ccccc1S2 [drawing 1001] | 25.1 | 102 |  | 
46 | COc1ccc(C2=Nc3cc(C(=O)NCc4cccnc4)ccc3Sc3ccccc32)cc1 [drawing 712] | 79.4 | 106 |  | 
47 | CC(C)NC(=O)c1ccc2c(c1)N=C(c1ccccc1Cl)c1ccccc1S2 | 631 | 46 |  | 
48 | O=C(NCCC(F)(F)F)c1ccc2c(c1)N=C(c1cccc(F)c1)c1ccccc1S2 [drawing 625] | 5.01 | 85 |  | 
49 | O=C(NN1CCCCC1)c1ccc2c(c1)N=C(C1CCCCC1)c1ccccc1S2 [drawing 861] |  |  |  | 100
50 | O=C(NCc1ccccc1)c1ccc2c(c1)N=C(c1ccc(Cl)cc1)c1ccccc1S2 [drawing 647] | 5.01 | 105 |  | 

Row | Structure (SMILES) | IC50 [1] [nM] | Emax [2] [%] | IC50 (pIC50, Appendix A) [nM] | % Inhibition [2] [%]
51 | O=C(NCc1cccnc1)c1ccc2c(c1)N=C(c1ccc(F)cc1)c1ccccc1S2 [drawing 931] | 15.8 | 123 |  | 
52 | O=C(NCc1ccncc1)c1ccc2c(c1)N=C(c1ccc(Br)cc1)c1ccccc1S2 [drawing 586] |  | 84 | 50.1 | 
53 | O=C(NCc1ccccc1)c1ccc2c(c1)N=C(c1cccc(Cl)c1)c1ccccc1S2 [drawing 717] | 7.94 | 106 |  | 
54 | O=C(NCCc1ccccc1)c1ccc2c(c1)N=C(N1CCCCC1)c1ccccc1S2 [drawing 1019] | 25.1 | 106 |  | 
55 | O=C(NC1CCCC1)c1ccc2c(c1)N=C(c1ccc(Cl)s1)c1ccccc1S2 [drawing 1139] | 39.8 | 86 |  | 
56 | C[C@@H]1CCC[C@H](C)N1NC(=O)c1ccc2c(c1)N=C(c1ccc(Cl)cc1)c1ccccc1S2 [drawing 1133] | 39.8 | 96 |  | 
57 | O=C(NN1CCCCCC1)c1ccc2c(c1)N=C(c1ccccc1F)c1ccccc1S2 [drawing 578] | 50.1 | 87 |  | 
58 | O=C(NN1CCCCC1)c1ccc2c(c1)N=C(C1CCCCC1)c1ccccc1C2 |  | 87 |  | 
59 | CCONC(=O)c1ccc2c(c1)N=C(c1ccc(Cl)cc1)c1ccccc1S2 | 63.1 | 91 |  | 
60 | CCCC1=Nc2cc(C(=O)NCCC3=CCCCC3)ccc2Sc2ccccc21 | 50.1 | 118 |  | 
61 | CCCC1=Nc2cc(C(=O)N3CCN(c4cccc(C(F)(F)F)c4)CC3)ccc2Sc2ccccc21 | 251 | 91 |  | 
62 | CCCCNC(=O)c1cc2c(cc1C)Sc1ccccc1C(c1ccc(Cl)cc1)=N2 [drawing 630] |  | 94 | 63.1 | 
63 | O=C(NCc1ccccn1)c1ccc2c(c1)N=C(c1cccc(Br)c1)c1ccccc1S2 [drawing 891] | 15.8 | 85 |  | 
64 | O=C(NC1CCCCC1)c1ccc2c(c1)N=C(c1cccc(F)c1)c1ccccc1S2 [drawing 941] | 20 | 127 |  | 
65 | O=C(NCc1cccs1)c1ccc2c(c1)N=C(c1ccc(F)cc1)c1ccccc1S2 [drawing 571] | 2.51 | 97 |  | 
66 | CCCCNC(=O)c1ccc2c(c1)N=C(c1ccc(Cl)cn1)c1ccccc1S2 [drawing 813] | 10 | 106 |  | 
67 | CCOCCNC(=O)c1ccc2c(c1)N=C(c1ccc(C(=O)OCC)cc1)c1ccccc1S2 | 158 | 77 |  | 
68 | CCONC(=O)c1ccc2c(c1)N=C(c1ccc(F)cc1)c1ccccc1S2 | 63.1 | 98 |  | 
69 | O=C(NCc1cccnc1)c1ccc2c(c1)N=C(c1ccccc1Cl)c1ccccc1S2 |  | 72 |  | 
70 | O=C(NN1CCCCC1)c1ccc2c(c1)NC(C1CCCCC1)c1ccccc1S2 (stereo not drawn) | 501 | 43 |  | 
71 | CON(C)C(=O)c1ccc2c(c1)N=C(c1sccc1C)c1ccccc1S2 | 794 | 42 |  | 
72 | Cc1ccc(CNC(=O)c2ccc3c(c2)N=C(c2ccc(Cl)s2)c2ccccc2S3)o1 [drawing 765] | 10 | 92 |  | 
73 | CCCCN(C)C(=O)c1ccc2c(c1)N=C(c1ccccc1F)c1ccccc1S2 | 251 | 77 |  | 
